Consider 14 compounds from ChEMBL document CHEMBL1687870, “Antimicrobial isopropenyl-dihydrofuranoisoflavones from Crotalaria lachnophora” (2011).

Calls of active or inactive are those of the source. No cut-off for these calls is given here.

For one assay, the system named is Staphylococcus aureus. In words: Antimicrobial activity against Staphylococcus aureus DSM 799 at 1 ug/ul after 24 hrs by disk diffusion method. It counts as functional. A general note: A growth-free zone around the sample is the usual read-out of agar diffusion tests.
The subject of the next assay is Klebsiella pneumoniae. Put plainly: Antimicrobial activity against Klebsiella pneumoniae DSM 681 at 1 ug/ul after 24 hrs by disk diffusion method. It counts as functional.
The next assay deals with Pseudomonas aeruginosa. Put plainly: Antimicrobial activity against Pseudomonas aeruginosa DSM 1128 at 1 ug/ul after 24 hrs by disk diffusion method. It counts as functional.
The subject of the next assay is Escherichia coli. In words: Antimicrobial activity against Escherichia coli DSM 682 after 24 hrs by disk diffusion method. The class given is functional.
The subject of a further assay is Aspergillus niger. In words: Antifungal activity against Aspergillus niger DSM 1988 after 48 hrs by disk diffusion method. It counts as functional, organism-based.
A further assay concerns Candida albicans. Put plainly: Antifungal activity against Candida albicans DSM 1386 after 24 hrs by disk diffusion method. It counts as functional, organism-based.

Take `CN[C@@H]1[C@H](O[C@H]2[C@H](O[C@H]3[C@H](O)[C@@H](O)[C@H](N=C(N)N)[C@@H](O)[C@@H]3N=C(N)N)O[C@@H](C)[C@]2(O)C=O)O[C@@H](CO)[C@H](O)[C@H]1O` [STREPTOMYCIN]: the outcome in the assay on Staphylococcus aureus and with Pseudomonas aeruginosa was inactive. The figures for the “diameter of the inhibition zone (DIZ)” value in the assay on Klebsiella pneumoniae and in the assay on Escherichia coli were 21.3 mm and 19.3 mm, respectively.

Turning to `O=c1c(-c2ccc(O)cc2O)coc2cc(O)cc(O)c12`, the outcome in the assay with Staphylococcus aureus, with Pseudomonas aeruginosa, in the assay on Aspergillus niger and in the assay on Candida albicans was inactive. The “diameter of the inhibition zone (DIZ)” value with Klebsiella pneumoniae and in the assay with Escherichia coli was 7 mm throughout.

`C=C(C)C1Cc2c(cc3oc4oc5cc(O)ccc5c4c(=O)c3c2O)O1` (stereo unspecified) [LACHNOISOFLAVONE B]: the outcome with Staphylococcus aureus, in the assay with Pseudomonas aeruginosa, with Aspergillus niger and in the assay with Candida albicans was inactive. Moreover, the “diameter of the inhibition zone (DIZ)” value in the assay on Klebsiella pneumoniae was determined as 7.3 mm; with Escherichia coli it was 7 mm.

On to `C=C(C)C1Cc2c(O)cc3occ(-c4ccc(O)cc4O)c(=O)c3c2O1` (racemic), for which the outcome in the assay on Staphylococcus aureus, in the assay with Pseudomonas aeruginosa, in the assay on Aspergillus niger and with Candida albicans was inactive. The “diameter of the inhibition zone (DIZ)” value in the assay on Klebsiella pneumoniae was determined as 7 mm; in the assay with Escherichia coli, 8.3 mm.

Regarding `COc1cc(O)c2c(c1)OC[C@H](c1ccc(O)cc1OC)C2=O` [CAJANOL], the outcome with Staphylococcus aureus, in the assay with Pseudomonas aeruginosa, in the assay on Aspergillus niger and in the assay with Candida albicans was inactive. The results for the “diameter of the inhibition zone (DIZ)” value with Klebsiella pneumoniae and with Escherichia coli were 9.3 mm and 7.3 mm, respectively.

With `CC1(C)S[C@@H]2[C@H](NC(=O)[C@H](N)c3ccccc3)C(=O)N2[C@H]1C(=O)O` [AMPICILLIN], the result in the assay with Staphylococcus aureus and in the assay with Pseudomonas aeruginosa was inactive. The “diameter of the inhibition zone (DIZ)” value in the assay with Klebsiella pneumoniae was 11.7 mm; in the assay with Escherichia coli, 24.3 mm.

For `COc1cc(O)c2c(=O)c(-c3ccc(O)cc3O)coc2c1` [CAJANIN], the result in the assay on Staphylococcus aureus, in the assay on Pseudomonas aeruginosa, in the assay with Aspergillus niger and with Candida albicans was inactive. Also, the “diameter of the inhibition zone (DIZ)” value is listed as 9.7 mm in the assay on Klebsiella pneumoniae and 7.3 mm in the assay with Escherichia coli.

`COc1cc(O)c2c(=O)c(-c3ccc(O)cc3)coc2c1` [PRUNETIN]: the result in the assay with Staphylococcus aureus, with Pseudomonas aeruginosa, in the assay on Aspergillus niger and in the assay with Candida albicans was inactive. Further, the “diameter of the inhibition zone (DIZ)” value in the assay with Klebsiella pneumoniae is 9.3 mm; in the assay with Escherichia coli, 7.3 mm.

Take `CN(C)[C@@H]1C(O)=C(C(N)=O)C(=O)[C@@]2(O)C(O)=C3C(=O)c4c(O)cccc4[C@@](C)(O)[C@H]3C[C@@H]12` [TETRACYCLINE]: the “diameter of the inhibition zone (DIZ)” value with Staphylococcus aureus worked out at 20.7 mm; in the assay with Klebsiella pneumoniae it was 26.3 mm; in the assay with Pseudomonas aeruginosa, 17.7 mm; in the assay on Escherichia coli, 22.3 mm.

On to `COc1cc2occ(-c3ccc(O)cc3)c(=O)c2c(O)c1OC` [7-O-METHYLTECTORIGENIN], for which the outcome in the assay on Staphylococcus aureus, in the assay on Pseudomonas aeruginosa, in the assay on Aspergillus niger and in the assay on Candida albicans was inactive. In addition, the “diameter of the inhibition zone (DIZ)” value turned out to be 7 mm in the assay with Klebsiella pneumoniae and 9.3 mm in the assay with Escherichia coli.

`COc1cc(-c2coc3cc(O)cc(O)c3c2=O)ccc1O` [3'-O-METHYLOROBOL]: the result with Staphylococcus aureus, in the assay on Pseudomonas aeruginosa, in the assay on Aspergillus niger and with Candida albicans was inactive. For the same compound, the “diameter of the inhibition zone (DIZ)” value was found to be 8.3 mm with Klebsiella pneumoniae and 7 mm in the assay on Escherichia coli.

As to `C=C(C)[C@H]1Cc2c(cc3occ(-c4ccc(O)cc4)c(=O)c3c2O)O1` [LICOAGROISOFLAVONE], the result in the assay with Staphylococcus aureus, with Pseudomonas aeruginosa, in the assay on Aspergillus niger and in the assay with Candida albicans was inactive. Besides, the “diameter of the inhibition zone (DIZ)” value in the assay with Klebsiella pneumoniae is recorded as 9.3 mm; in the assay on Escherichia coli, 7.3 mm.

For the compound `C[C@@H]1O[C@@H](Oc2cc(O)c3c(=O)cc(-c4ccc(O)c(O)c4)oc3c2)[C@H](O)[C@H](O)[C@H]1O`, the outcome in the assay on Staphylococcus aureus, in the assay with Pseudomonas aeruginosa, with Aspergillus niger and in the assay with Candida albicans was inactive. Also, the “diameter of the inhibition zone (DIZ)” value was determined as 7.7 mm with Klebsiella pneumoniae and 10.7 mm with Escherichia coli.

GENTAMICIN: the inhibition zone (IZ) worked out at 15.3 mm with Staphylococcus aureus, 14.3 mm in the assay on Klebsiella pneumoniae, 20.3 mm with Pseudomonas aeruginosa and 16.3 mm in the assay on Escherichia coli.
